Laboratory results from ChEMBL document CHEMBL1127002, “Substituted pyrrolidin-2-one biphenyltetrazoles as angiotensin II antagonists” (Bioorg Med Chem Lett, 1993).
pIC50: −log10 of the molar value. The source made the active and inactive calls. The calls are words filed in the database; no cut-off is given here.

Assays:
[1] = species on record: Oryctolagus cuniculus; assay: Tested for inhibitory activity against angiotensin II induced contraction in rabbit aortic rings; assay type: functional; details: Aorta, read-out: pA2 (converted)
[2] = system: Rattus norvegicus; assay: Tested for antihypertensive activity in spontaneously hypertensive rats (SHR) after oral administration; A - Compound shows antihypertensive activity.; assay type: functional, organism-based
[3] = target: T1, Type-1 angiotensin II receptor (Bos taurus, UniProt P25104); assay: Concentration that gives 50% inhibition for binding of 125-I-[Sar1, IIe8] angiotensin to Angiotensin II receptor, type 1 in bovine adrenal cortex membrane.; assay type: cell membranes
T1 sequence (P25104 whole entry): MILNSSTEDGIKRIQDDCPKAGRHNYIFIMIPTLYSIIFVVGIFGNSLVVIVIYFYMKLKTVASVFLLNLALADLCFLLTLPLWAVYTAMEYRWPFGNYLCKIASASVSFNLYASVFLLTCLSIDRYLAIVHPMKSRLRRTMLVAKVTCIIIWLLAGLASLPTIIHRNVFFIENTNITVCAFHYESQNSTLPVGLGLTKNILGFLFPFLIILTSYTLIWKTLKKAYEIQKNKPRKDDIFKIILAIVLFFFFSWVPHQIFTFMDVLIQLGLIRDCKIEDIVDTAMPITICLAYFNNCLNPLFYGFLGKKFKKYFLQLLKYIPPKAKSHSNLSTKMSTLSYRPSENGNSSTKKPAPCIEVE

| pIC50 [3] | SMILES | Kb [1] [nM] | Activity [2] |
| --- | --- | --- | --- |
|  | CCOC(=O)/C=C1\C2C3CCC(O3)C2C(=O)N1Cc1ccc(-c2ccccc2-c2nn[nH]n2)cc1 (centres undefined) | 3.98 |  |
|  | CCOC(=O)/C=C1\C2C(C(=O)N1Cc1ccc(-c3ccccc3-c3nn[nH]n3)cc1)C1CCC2C1(c1ccccc1)c1ccccc1 (centres undefined) | > 1000 |  |
|  | CCOC(=O)/C=C1\C2C3CCCC(CC3)C2C(=O)N1Cc1ccc(-c2ccccc2-c2nn[nH]n2)cc1 (centres undefined) | 20 | A |
|  | CCOC(=O)/C=C1\C2C(C(=O)N1Cc1ccc(-c3ccccc3-c3nn[nH]n3)cc1)C1CCC2C1(C)C (centres undefined) | 251 |  |
| 6.60 | CCOC(=O)/C=C1\N(Cc2ccc(-c3ccccc3-c3nn[nH]n3)cc2)C(=O)CC12CCCC2 | 3.16 |  |
|  | CCOC(=O)/C=C1\C2C3C=CC(C3)C2C(=O)N1Cc1ccc(-c2ccccc2-c2nn[nH]n2)cc1 (centres undefined) | 3.98 |  |
|  | CCOC(=O)/C=C1\C2C3C=CC(CCC3)C2C(=O)N1Cc1ccc(-c2ccccc2-c2nn[nH]n2)cc1 (centres undefined) | 39.8 |  |
|  | CCOC(=O)/C=C1\C2CC=CCC2C(=O)N1Cc1ccc(-c2ccccc2-c2nn[nH]n2)cc1 (centres undefined) | 31.6 |  |
| 7.22 | CCOC(=O)/C=C1\N(Cc2ccc(-c3ccccc3-c3nnn[nH]3)cc2)C(=O)CC12CCCCCC2 |  |  |
| 7.00 | CCOC(=O)/C=C1\N(Cc2ccc(-c3ccccc3-c3nn[nH]n3)cc2)C(=O)CC1(CC)CC | 12.6 |  |
| 6.85 | CCOC(=O)/C=C1\N(Cc2ccc(-c3ccccc3-c3nnn[nH]3)cc2)C(=O)CC12CCCCC2 | 12.6 |  |
|  | CCOC(=O)/C=C1\C2C3CCC(C3)C2C(=O)N1Cc1ccc(-c2ccccc2-c2nn[nH]n2)cc1 (centres undefined) | 1 |  |
|  | CCOC(=O)/C=C1\C2CCCCC2C(=O)N1Cc1ccc(-c2ccccc2-c2nn[nH]n2)cc1 (centres undefined) | 3.98 |  |
|  | CCOC(=O)/C=C1\C2C3CCC(CC3)C2C(=O)N1Cc1ccc(-c2ccccc2-c2nn[nH]n2)cc1 (centres undefined) | 10 | A |
|  | CCOC(=O)/C=C1\C2C3C=CC(CC3)C2C(=O)N1Cc1ccc(-c2ccccc2-c2nn[nH]n2)cc1 (centres undefined) | 6.31 |  |
| 5.51 | CCOC(=O)/C=C1/C(C)CC(=O)N1Cc1ccc(-c2ccccc2-c2nn[nH]n2)cc1 (centres undefined) | 316 |  |
|  | CCOC(=O)/C=C1\C2C(C(=O)N1Cc1ccc(-c3ccccc3-c3nn[nH]n3)cc1)C1C=CC2(OC)CC1 (centres undefined) | 5.01 |  |
| 7.22 | CCOC(=O)/C=C1\N(Cc2ccc(-c3ccccc3-c3nn[nH]n3)cc2)C(=O)CC1(C)CC (centres undefined) | 25.1 |  |
| 6.37 | CCCCc1nc(Cl)c(CO)n1Cc1ccc(-c2ccccc2-c2nnn[nH]2)cc1 [LOSARTAN] | 1.58 |  |
|  | CCOC(=O)/C=C1\N(Cc2ccc(-c3ccccc3-c3nn[nH]n3)cc2)C(=O)CC12CCCCCC2 | 3.98 | Active |
